Tests used:
[1] = Cmax in Sprague-Dawley rat at 1.0 mg/kg, iv measured for 5 min to 72 hrs by LC-MS/MS analysis; assay type: ADME, organism-based; parameters: dose 1 mg/kg, route intravenous; settings: in vivo
[2] = target: Tyrosine-protein kinase Mer (Homo sapiens, UniProt Q12866); experiment: (§1) Inhibition of recombinant human GST-tagged cMER (578 to 872 residues) expressed in baculovirus infected Sf21 insect cells using biotin as substrate preincubated for 5 mins followed by substrate addition and measured after 30 to 60 mins in presence of ATP by HTRF assay
in vitro = settings: human, liver microsomes
[3] = target: Tyrosine-protein kinase JAK3 (Homo sapiens) (UniProt P52333); experiment: Inhibition of recombinant full length human GST-tagged JAK3 expressed in baculovirus expression system at 1 uM using biotin as substrate preincubated for 5 mins followed by substrate addition and measured after 30 to 60 mins in presence of ATP by HTRF assay relative to control
[4] = target: Serine/threonine-protein kinase PLK3 (Homo sapiens) (UniProt Q9H4B4); experiment: Inhibition of recombinant full length human GST-tagged PLK3 expressed in baculovirus expression system at 1 uM using biotin as substrate preincubated for 5 mins followed by substrate addition and measured after 30 to 60 mins in presence of ATP by HTRF assay relative to control
[5] = target: Ephrin type-B receptor 4 (Homo sapiens) (UniProt P54760); experiment: Inhibition of recombinant full length human His-tagged EPHB4 expressed in baculovirus expression system at 1 uM using biotin as substrate preincubated for 5 mins followed by substrate addition and measured after 30 to 60 mins in presence of ATP by HTRF assay relative to control
[6] = Antiproliferative activity against human NIH-H460 cells at 10 uM incubated for 72 hrs by MTT assay relative to control; assay type: functional; settings: NIH-H460, 72 h
[7] = target: Mitogen-activated protein kinase 14 (Homo sapiens) (UniProt Q16539); experiment: Inhibition of recombinant full length human GST-tagged MAPK14 expressed in Escherichia coli at 1 uM using biotin as substrate preincubated for 5 mins followed by substrate addition and measured after 30 to 60 mins in presence of ATP by HTRF assay relative to control
[8] = target: Tyrosine-protein kinase Fes/Fps (Homo sapiens) (UniProt P07332); experiment: (§2) Inhibition of recombinant human His-tagged FES expressed in baculovirus system at 1 uM using biotin as substrate preincubated for 5 mins followed by substrate addition and measured after 30 to 60 mins in presence of ATP by HTRF assay relative to control
HT-29 = experiment: Antiproliferative activity against human HT-29 cells at 10 uM incubated for 72 hrs by MTT assay relative to control; assay type: functional; settings: HT-29, 72 h
Angiopoietin-1 receptor = Angiopoietin-1 receptor (Homo sapiens, UniProt Q02763); experiment: Inhibition of recombinant human GST-tagged TEK (817 to 1101 residues) expressed in baculovirus expression system at 1 uM using biotin as substrate preincubated for 5 mins followed by substrate addition and measured after 30 to 60 mins in presence of ATP by HTRF assay relative to control
[9] = target: Fibroblast growth factor receptor 1 (Homo sapiens) (UniProt P11362); experiment: as §2, with “human N-terminal” for “human”, “FGFR1 catalytic domain (399 to 822 residues)” for “FES”, “infected Sf21 insect cells” for “system”
[10] = target: Vascular endothelial growth factor receptor 3 (Homo sapiens, UniProt P35916); experiment: Inhibition of recombinant human GST-tagged FLT4 catalytic domain (800 to 1297 residues) expressed in baculovirus expression system using biotin as substrate preincubated for 5 mins followed by substrate addition and measured after 30 to 60 mins in presence of ATP by HTRF assay
[11] = Clearance in Sprague-Dawley rat at 1.0 mg/kg, iv measured for 5 min to 72 hrs by LC-MS/MS analysis; assay type: ADME, organism-based; settings: in vivo
[12] = Mean residence time in Sprague-Dawley rat at 5.0 mg/kg, ig measured for 15 min to 72 hrs by LC-MS/MS analysis; assay type: ADME, organism-based; settings: in vivo, po
MKN-45 = experiment: Antiproliferative activity against human MKN45 cells at 10 uM incubated for 72 hrs by MTT assay relative to control; assay type: functional; settings: MKN-45, 72 h
[13] = target: Mitogen-activated protein kinase kinase kinase 20 (Homo sapiens) (UniProt Q9NYL2); experiment: Inhibition of recombinant full length human GST-tagged ZAK expressed in baculovirus expression system at 1 uM using biotin as substrate preincubated for 5 mins followed by substrate addition and measured after 30 to 60 mins in presence of ATP by HTRF assay relative to control
[14] = AUC (0 to infinity) in Sprague-Dawley rat at 5.0 mg/kg, ig measured for 15 min to 72 hrs by LC-MS/MS analysis; assay type: ADME, organism-based; parameters: dose 5 mg/kg, time infinity, route intragastric; settings: in vivo, po
[15] = target: Aurora kinase B (Homo sapiens) (UniProt Q96GD4); experiment: Inhibition of recombinant full length human His-tagged Aurora B expressed in baculovirus expression system at 1 uM using biotin as substrate preincubated for 5 mins followed by substrate addition and measured after 30 to 60 mins in presence of ATP by HTRF assay relative to control
[16] = target: Macrophage colony-stimulating factor 1 receptor (Homo sapiens) (UniProt P07333); experiment: Inhibition of recombinant full length human His-tagged CSF1R expressed in baculovirus expression system at 1 uM using biotin as substrate preincubated for 5 mins followed by substrate addition and measured after 30 to 60 mins in presence of ATP by HTRF assay relative to control
[17] = target: Receptor-type tyrosine-protein kinase FLT3 (Homo sapiens) (UniProt P36888); experiment: Inhibition of recombinant full length human His-tagged FLT3 expressed in baculovirus expression system at 1 uM using biotin as substrate preincubated for 5 mins followed by substrate addition and measured after 30 to 60 mins in presence of ATP by HTRF assay relative to control
[18] = target: Serine/threonine-protein kinase pim-1 (Homo sapiens) (UniProt P11309); experiment: Inhibition of recombinant full length human His-tagged PIM1 expressed in baculovirus expression system at 1 uM using biotin as substrate preincubated for 5 mins followed by substrate addition and measured after 30 to 60 mins in presence of ATP by HTRF assay relative to control
[19] = target: Macrophage-stimulating protein receptor (Homo sapiens, UniProt Q04912); experiment: Inhibition of recombinant human GST-tagged RON expressed in baculovirus system using biotin as substrate preincubated for 5 mins followed by substrate addition and measured after 30 to 60 mins in presence of ATP by HTRF assay
[20] = target: High affinity nerve growth factor receptor (Homo sapiens, UniProt P04629); experiment: Inhibition of recombinant human His-tagged TRKA catalytic domain (441 to 796 residues) expressed in baculovirus expression system using biotin as substrate preincubated for 5 mins followed by substrate addition and measured after 30 to 60 mins in presence of ATP by HTRF assay
[21] = target: Mast/stem cell growth factor receptor Kit (Homo sapiens) (UniProt P10721); experiment: as §1, with “human N-terminal” for “human”, “c-Kit (544” for “cMER (578”, “end” for “872”, “cells at 1 uM” for “cells”, “assay relative to control” for “assay”

Sequence of Mitogen-activated protein kinase 14 (Homo sapiens) (Q16539 whole entry): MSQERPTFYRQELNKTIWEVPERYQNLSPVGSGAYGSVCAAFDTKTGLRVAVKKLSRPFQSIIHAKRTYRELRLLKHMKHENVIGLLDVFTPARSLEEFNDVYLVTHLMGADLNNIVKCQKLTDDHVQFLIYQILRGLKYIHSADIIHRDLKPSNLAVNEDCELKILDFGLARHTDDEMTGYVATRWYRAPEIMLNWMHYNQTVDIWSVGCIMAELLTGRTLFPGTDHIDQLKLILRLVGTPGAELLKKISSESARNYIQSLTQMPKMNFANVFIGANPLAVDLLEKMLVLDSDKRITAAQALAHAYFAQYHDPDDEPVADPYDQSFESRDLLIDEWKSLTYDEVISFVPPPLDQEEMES
Sequence of Receptor-type tyrosine-protein kinase FLT3 (Homo sapiens) (P36888 whole entry): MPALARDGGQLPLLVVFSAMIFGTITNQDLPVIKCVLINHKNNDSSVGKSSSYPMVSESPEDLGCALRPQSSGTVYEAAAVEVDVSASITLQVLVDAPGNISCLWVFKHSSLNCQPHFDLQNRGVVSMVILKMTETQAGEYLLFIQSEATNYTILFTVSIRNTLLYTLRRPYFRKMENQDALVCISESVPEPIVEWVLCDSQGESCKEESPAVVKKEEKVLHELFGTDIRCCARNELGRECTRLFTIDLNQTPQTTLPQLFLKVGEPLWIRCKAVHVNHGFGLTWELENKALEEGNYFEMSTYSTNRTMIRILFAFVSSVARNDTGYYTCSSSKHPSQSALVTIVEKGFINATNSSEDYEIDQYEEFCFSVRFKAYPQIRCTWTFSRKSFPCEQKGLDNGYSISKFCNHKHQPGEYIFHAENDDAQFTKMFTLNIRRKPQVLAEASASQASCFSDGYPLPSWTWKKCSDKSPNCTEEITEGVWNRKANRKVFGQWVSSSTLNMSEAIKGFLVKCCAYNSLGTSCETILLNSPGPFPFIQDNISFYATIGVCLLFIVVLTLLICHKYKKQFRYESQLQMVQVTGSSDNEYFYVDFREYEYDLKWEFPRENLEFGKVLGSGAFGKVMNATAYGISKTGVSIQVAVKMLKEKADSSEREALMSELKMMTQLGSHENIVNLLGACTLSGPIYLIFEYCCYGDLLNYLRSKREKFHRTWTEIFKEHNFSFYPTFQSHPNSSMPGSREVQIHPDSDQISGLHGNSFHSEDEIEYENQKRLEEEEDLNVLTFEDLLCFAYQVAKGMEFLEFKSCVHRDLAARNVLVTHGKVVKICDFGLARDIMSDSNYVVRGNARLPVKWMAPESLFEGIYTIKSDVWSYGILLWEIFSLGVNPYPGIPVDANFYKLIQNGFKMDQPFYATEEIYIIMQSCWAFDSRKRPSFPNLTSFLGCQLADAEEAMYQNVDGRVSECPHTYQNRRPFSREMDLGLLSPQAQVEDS
Sequence of Tyrosine-protein kinase JAK3 (Homo sapiens) (P52333 whole entry): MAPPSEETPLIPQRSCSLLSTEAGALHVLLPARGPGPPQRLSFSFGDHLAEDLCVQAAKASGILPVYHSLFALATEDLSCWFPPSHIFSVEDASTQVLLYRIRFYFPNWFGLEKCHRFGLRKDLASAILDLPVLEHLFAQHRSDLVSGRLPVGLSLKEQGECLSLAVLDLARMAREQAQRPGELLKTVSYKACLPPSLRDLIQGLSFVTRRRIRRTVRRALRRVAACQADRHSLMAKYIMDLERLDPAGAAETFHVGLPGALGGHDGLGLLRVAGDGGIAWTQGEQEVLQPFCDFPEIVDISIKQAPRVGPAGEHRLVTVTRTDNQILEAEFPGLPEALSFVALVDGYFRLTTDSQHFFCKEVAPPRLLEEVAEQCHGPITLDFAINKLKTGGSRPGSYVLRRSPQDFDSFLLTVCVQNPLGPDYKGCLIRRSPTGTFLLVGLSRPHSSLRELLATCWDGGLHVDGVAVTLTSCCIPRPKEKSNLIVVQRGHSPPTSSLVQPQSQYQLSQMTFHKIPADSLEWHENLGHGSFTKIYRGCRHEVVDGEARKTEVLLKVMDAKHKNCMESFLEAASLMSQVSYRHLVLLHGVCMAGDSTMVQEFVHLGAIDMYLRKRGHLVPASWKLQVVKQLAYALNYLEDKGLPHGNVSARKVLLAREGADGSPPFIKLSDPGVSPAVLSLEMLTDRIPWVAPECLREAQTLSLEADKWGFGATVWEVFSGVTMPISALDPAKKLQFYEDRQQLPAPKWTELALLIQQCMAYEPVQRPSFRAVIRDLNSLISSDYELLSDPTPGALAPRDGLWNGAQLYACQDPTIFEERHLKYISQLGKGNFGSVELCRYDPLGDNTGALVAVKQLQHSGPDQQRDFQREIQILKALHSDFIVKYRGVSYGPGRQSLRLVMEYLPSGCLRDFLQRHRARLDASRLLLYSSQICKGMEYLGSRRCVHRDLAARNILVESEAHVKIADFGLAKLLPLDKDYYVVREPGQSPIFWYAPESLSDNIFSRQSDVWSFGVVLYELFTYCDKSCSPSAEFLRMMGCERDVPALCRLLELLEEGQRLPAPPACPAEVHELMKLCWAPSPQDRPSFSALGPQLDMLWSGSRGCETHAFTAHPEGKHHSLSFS
Sequence of Macrophage colony-stimulating factor 1 receptor (Homo sapiens) (P07333 whole entry): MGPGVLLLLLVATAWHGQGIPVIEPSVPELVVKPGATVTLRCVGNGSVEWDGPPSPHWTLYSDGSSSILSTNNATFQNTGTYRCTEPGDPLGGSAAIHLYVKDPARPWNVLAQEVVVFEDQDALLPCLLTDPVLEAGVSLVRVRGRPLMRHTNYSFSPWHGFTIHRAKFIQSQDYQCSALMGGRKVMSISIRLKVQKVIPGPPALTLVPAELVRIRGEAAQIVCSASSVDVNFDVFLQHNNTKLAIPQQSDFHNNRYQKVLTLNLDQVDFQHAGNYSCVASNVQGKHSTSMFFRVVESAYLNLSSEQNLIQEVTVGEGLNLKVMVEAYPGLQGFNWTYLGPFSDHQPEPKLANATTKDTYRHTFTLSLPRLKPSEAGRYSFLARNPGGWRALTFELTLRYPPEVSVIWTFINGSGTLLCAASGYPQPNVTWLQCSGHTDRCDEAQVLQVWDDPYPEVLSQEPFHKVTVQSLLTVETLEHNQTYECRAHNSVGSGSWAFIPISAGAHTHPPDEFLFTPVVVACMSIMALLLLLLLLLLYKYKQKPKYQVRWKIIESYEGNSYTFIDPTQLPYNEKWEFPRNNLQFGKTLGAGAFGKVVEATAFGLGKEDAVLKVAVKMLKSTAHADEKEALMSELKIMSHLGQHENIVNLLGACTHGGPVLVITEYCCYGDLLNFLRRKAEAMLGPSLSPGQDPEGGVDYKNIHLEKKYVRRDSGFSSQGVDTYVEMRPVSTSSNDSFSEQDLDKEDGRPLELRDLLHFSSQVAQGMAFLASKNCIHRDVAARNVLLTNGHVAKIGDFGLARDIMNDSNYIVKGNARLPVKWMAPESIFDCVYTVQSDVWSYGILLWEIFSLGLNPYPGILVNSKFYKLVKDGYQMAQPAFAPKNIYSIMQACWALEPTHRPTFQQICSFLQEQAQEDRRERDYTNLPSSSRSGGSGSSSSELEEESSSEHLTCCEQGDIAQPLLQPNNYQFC
Sequence of Angiopoietin-1 receptor (Q02763 whole entry, the tested form may be a part): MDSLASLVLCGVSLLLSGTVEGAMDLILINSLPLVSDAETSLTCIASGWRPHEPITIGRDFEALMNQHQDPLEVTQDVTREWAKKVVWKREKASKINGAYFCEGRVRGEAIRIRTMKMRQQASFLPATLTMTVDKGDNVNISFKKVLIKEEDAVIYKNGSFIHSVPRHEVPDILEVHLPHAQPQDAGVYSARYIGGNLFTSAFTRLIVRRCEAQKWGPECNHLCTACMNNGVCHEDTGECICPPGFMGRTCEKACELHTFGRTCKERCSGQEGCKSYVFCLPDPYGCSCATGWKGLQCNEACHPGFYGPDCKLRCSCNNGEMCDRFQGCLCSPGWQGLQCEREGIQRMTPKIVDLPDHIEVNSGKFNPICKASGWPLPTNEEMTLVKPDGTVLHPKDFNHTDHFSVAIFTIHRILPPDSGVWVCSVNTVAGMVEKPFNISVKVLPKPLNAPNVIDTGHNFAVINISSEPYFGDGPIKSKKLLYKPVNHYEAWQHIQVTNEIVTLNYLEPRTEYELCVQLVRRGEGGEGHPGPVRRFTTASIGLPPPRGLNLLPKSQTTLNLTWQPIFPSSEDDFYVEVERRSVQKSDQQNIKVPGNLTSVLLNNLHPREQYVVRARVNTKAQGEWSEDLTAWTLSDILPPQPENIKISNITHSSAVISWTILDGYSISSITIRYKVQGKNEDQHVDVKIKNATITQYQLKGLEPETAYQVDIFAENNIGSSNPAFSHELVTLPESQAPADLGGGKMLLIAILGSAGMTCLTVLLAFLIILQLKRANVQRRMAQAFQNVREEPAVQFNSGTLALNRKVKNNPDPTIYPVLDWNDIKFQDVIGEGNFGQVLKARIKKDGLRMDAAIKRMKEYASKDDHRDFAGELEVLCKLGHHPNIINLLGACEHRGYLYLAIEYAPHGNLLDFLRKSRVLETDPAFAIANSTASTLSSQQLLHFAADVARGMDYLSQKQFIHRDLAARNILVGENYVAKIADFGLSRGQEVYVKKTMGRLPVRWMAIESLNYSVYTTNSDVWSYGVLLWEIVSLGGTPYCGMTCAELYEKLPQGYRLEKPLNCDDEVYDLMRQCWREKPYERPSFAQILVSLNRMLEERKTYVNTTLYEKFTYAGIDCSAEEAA
Sequence of Serine/threonine-protein kinase pim-1 (Homo sapiens) (P11309 whole entry, looked up): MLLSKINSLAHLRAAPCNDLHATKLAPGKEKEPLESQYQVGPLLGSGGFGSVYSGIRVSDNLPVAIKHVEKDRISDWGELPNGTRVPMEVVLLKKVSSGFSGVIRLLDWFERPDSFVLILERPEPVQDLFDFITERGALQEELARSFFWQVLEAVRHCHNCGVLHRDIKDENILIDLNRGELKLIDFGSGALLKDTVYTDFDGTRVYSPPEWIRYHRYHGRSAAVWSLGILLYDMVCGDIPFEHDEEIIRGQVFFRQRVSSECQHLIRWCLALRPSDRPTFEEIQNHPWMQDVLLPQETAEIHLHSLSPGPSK

Cmax [1]: 6500 ng/mL
IC50 [2]: 4.2 nM
half-life (in vitro): 14.7 h
inhibition [3]: < 50%
inhibition [4]: < 50%
inhibition [5]: 50 to 79%
inhibition [7]: < 50%
inhibition [8]: < 50%
inhibition (Angiopoietin-1 receptor): 50 to 79%
inhibition [9]: < 50%
IC50 [10]: 591 nM
clearance [11]: 0.167 mL/min/kg
MRT [12]: 32.4 h
inhibition [13]: < 50%
AUC(0-inf) [14]: 233 µg·h/mL
inhibition [15]: < 50%
inhibition [16]: < 50%
inhibition [17]: > 80%
inhibition [18]: < 50%
IC50 [19]: 346 nM
IC50 [20]: 32.9 nM
inhibition [21]: < 50%
SMILES: Cn1cc(-c2ccc(F)cc2)c(=O)c2c(Nc3ccc(Oc4ccnc(NC(=O)C5CC5)c4)c(F)c3)nccc21
inhibition at 10 µM [6]: 15.6%
inhibition at 10 µM (HT-29): 24.8%
inhibition at 10 µM (MKN-45): 30.9%
